Here are results for one compound from US20130267594A1, “PROLYL HYDROXYLASE INHIBITORS AS RADIATION MITIGATORS AND RADIATION PROTECTORS” (priority 2010, published 2013).

The subject of assay [1] is CHD4. The class given is cell-based.
Assay [2] has as its system MTA3. The class given is cell-based.
In assay [3] the test system is Suv39h1. The class given is cell-based.
Assay [4] concerns MTA3. The class given is cell-based. The source holds these as a separate data set.
Assay [5] deals with Hif1α. The class given is cell-based.
The test system of assay [6] is Hif1α. The class given is cell-based, mouse.
Assay [7] has as its system CHD4. The class given is cell-based. The source holds these as a separate data set.

Turning to `[Cl-].[Cl-].[Co+2]` [CoCl2], the CHD4 protein levels result in assay [1] is reported as “increased”. For the same compound, the MTA3 protein levels result in assay [2] was “increased”. In addition, the “expression of the Suv39h1 methyltransferase” value in assay [3] is on record as “to a lesser extent, CoCl2, increased expression of the Suv39h1 methyltransferase”. For the same compound, in assay [4], the “MTA3 mRNA levels” value is “increased”. Further, in assay [5], the Hif1α protein levels entry was “increased”; the “accumulation of Hif1α” value was “significant accumulation of Hif1α”; the “accumulation of Hif1α protein in combination with IR, versus agent alone” value is recorded as “much larger accumulation of Hif1α protein”. Moreover, the “ability to increase Hif1α levels in SuvDKO MEFs” value in assay [6] is given as “not altered”. Further, the “CHD4 mRNA levels” value in assay [7] is recorded as “increased”.
